Series [1] has as its system complementary DNA oligonucleotide (SEQ ID NO:7 or SEQ ID NO:8). Briefly: Thermal stability test, measurement of Tm (DNA/DNA match duplex). Type of series: binding. Conditions: for Tm / Tm of the duplex DNA/DNA compared with that of T-1 (control) and T-2 (control), in words / ΔTm: duplex DNA/DNA; for Tm: 3 μM each oligonucleotide, 10 mM sodium phosphate buffer, 100 mM sodium chloride, pH 7.0, 20 to 90° C. at 0.5° C. per minute, absorbance at 260 nm; for Tm of the duplex DNA/DNA compared with that of T-1 (control) and T-2 (control), in words: versus oligonucleotides of only naturally occurring nucleosides; for ΔTm: difference from the matching control (T-1 or T-2). An excerpt:
Using commercially available dT-CE phosphoramidite and dA-CE phosphoramidite (both of them were produced by Glen research Corp.) as materials, also using 3′-dT-CPG (1 μmol) packed in a column (produced by Glen research Corp.) as a starting material, oligonucleotides were synthesized according to the same method as in Example 2, in order to obtain oligonucleotides which were each complementary to UNF-1 and UNF-2 obtained in Example 2, respectively. The base sequences of oligonucleotides complementary to UNF-1 (SEQ ID NO:7) and complementary to UNF-2 (SEQ ID NO:8) are shown in Table 2 below.
Using UNF-1 and UNF-2, which were synthesized in Example 2, and complementary oligonucleotides thereto shown in Table 2 as materials, duplexes DNA/DNA were prepared according to the conventional method (R. Kierzek et al., Biochemistry, 1986, vol. 25, pp. 7840-7846).
Using the obtained duplex DNA/DNA, thermal stability test was carried out according to the conventional method.
(§1) That is, using a UV-2450 SPECTROPHOTOMETER equipped with a temperature-variable device (produced by Shimadzu Corp.), the oligonucleotides were placed in 8 consecutive 10 mm cells under the nitrogen atmosphere, and 10 mM of sodium phosphate buffer and 100 mM of sodium chloride (pH 7.0) were added thereto so that the concentration of each oligonucleotide became 3 μM, then the temperature was increased from 20° C. to 90° C. with a climbing rate of 0.5° C. per minute, and absorbance at 260 nm were measured.
A duplex DNA/DNA formed between TN-1 synthesized in Comparative Example 2 and a complementary oligonucleotide thereto represented by SEQ ID NO:7, and a duplex formed DNA/DNA between TN-2 synthesized in Comparative Example 2 and a complementary oligonucleotide thereto represented by SEQ ID NO:8 were synthesized according to the same method as in Example 3. The thermal stability of these duplex nucleic acids obtained was examined according to the same method as in Example 3.
In addition, a duplex DNA/DNA formed between T-1 (control) synthesized in Comparative Example 2 and a complementary oligonucleotide thereto represented by SEQ ID NO:7, and a duplex DNA between T-2 (control) synthesized in Comparative Example 2 and a complementary oligonucleotide thereto represented by SEQ ID NO:8 were synthesized according to the same method as in Example 3. Thermal stability of these duplex nucleic acids obtained was examined according to the same method as in Example 3. The results were shown together in FIG. 1.

The subject of series [2] is complementary RNA oligonucleotide (SEQ ID NO:9 or SEQ ID NO:10). The experiment in a line: Thermal stability test, measurement of Tm (DNA/RNA match duplex). Type of series: binding. Conditions: for Tm / Tm of the duplex DNA/RNA compared with that of T-1 (control) and T-2 (control), in words / ΔTm: duplex DNA/RNA; for Tm: same method as Example 3 (3 μM, 10 mM sodium phosphate buffer, 100 mM sodium chloride, pH 7.0); for Tm of the duplex DNA/RNA compared with that of T-1 (control) and T-2 (control), in words: versus oligonucleotides of only naturally occurring nucleosides; for ΔTm: difference from the matching control (T-1 or T-2). On the procedure:
as §1
Using commercially available rA-CE phosphoramidite, rU-CE phosphoramidite and rC-CE phosphoramidite as materials, also using 3′-dU-CPG (all of them were produced by Glen research Corp.) as a starting material, complementary oligonucleotides to each of UNF-1 and UNF-2 which were prepared in Example 2, were synthesized according to the same method as in Example 2.
Using UNF-1 and UNF-2, which were synthesized in Example 2, and the complementary oligonucleotides thereto shown in Table 2 as materials, a duplex DNA/RNA was prepared according to the conventional method (R. Kierzek et al., Biochemistry, 1986, vol. 25, pp. 7840-7846).
Using the obtained duplexes DNA/RNA, thermal stability test was carried out according to the same method as in Example 3.
A duplex DNA/RNA formed between TN-1 synthesized in Comparative Example 2 and a complementary oligonucleotide thereto represented by SEQ ID NO:9, and a duplex DNA/RNA formed between TN-2 synthesized in Comparative Example 2 and a complementary oligonucleotide thereto represented by SEQ ID NO:10 were synthesized according to the same method as in Example 4. Thermal stabilities of these duplex nucleic acids obtained were examined according to the same method as in Example 4.
In addition, a duplex DNA/RNA formed between T-1 (control) synthesized in Comparative Example 2 and a complementary oligonucleotide thereto represented by SEQ ID NO:9, and a duplex DNA formed between T-2 (control) synthesized in Comparative Example 2 and a complementary oligonucleotide thereto represented by SEQ ID NO:10 were synthesized according to the same method as in […]. Thermal stabilities of these duplex nucleic acids obtained were examined according to the same method as in Example 4.

[5NF] = 5'-amino-2'-fluoro-2',5'-dideoxyuridine unit, linked through its 5'-amino group; d = 2'-deoxy (DNA)

What is called Tm is the temperature at the midpoint of the melting transition. Regarding “T-1 (control): SEQ ID NO:5, 5′-d(AAG GAA ATG AGG AAA GA)-3′; oligonucleotide comprising only naturally occurring nucleosides (AAGGAAATGAGGAAAGA; unmodified DNA)”, the Tm in series [1] was found to be 52.9 °C; in series [2], 42.1 °C.
“T-2 (control): SEQ ID NO:6, 5′-d(AAG GAA TTG AGG AAA GA)-3′; oligonucleotide comprising only naturally occurring nucleosides (AAGGAATTGAGGAAAGA; unmodified DNA)”: the figures for the Tm in series [1] and in series [2] were 53.5 °C and 44 °C, respectively.
Take “TN-1: SEQ ID NO:3, 5′-(AAG GAA AT^NG AGG AAA GA)-3′; T^N = introduced 5′-aminothymidine (comparative) (AAGGAAANGAGGAAAGA; 5'-aminothymidine, chemistry not fully specified)”: in series [1], the “Tm of the duplex DNA/DNA compared with that of T-1 (control) and T-2 (control), in words” value is “lower”; the Tm is 50.6 °C; the ΔTm was −2.3. Further, in series [2], the “Tm of the duplex DNA/RNA compared with that of T-1 (control) and T-2 (control), in words” value is on record as “lower”; the ΔTm is reported as −4.4; the melting temperature (Tm) is 37.7 °C.
As for “TN-2: SEQ ID NO:4, 5′-(AAG GAA T^NT^NG AGG AAA GA)-3′; T^N = introduced 5′-aminothymidine (comparative) (AAGGAANNGAGGAAAGA; 5'-aminothymidines, chemistry not fully specified)”, in series [1], the “Tm of the duplex DNA/DNA compared with that of T-1 (control) and T-2 (control), in words” value was “lower”; the Tm is 48.3 °C; the ΔTm is reported as −5.2. In series [2], the “Tm of the duplex DNA/RNA compared with that of T-1 (control) and T-2 (control), in words” value is given as “lower”; the ΔTm is listed as −5.0; the melting temperature (Tm) stood at 39 °C.
For “UNF-1: SEQ ID NO:1, 5′-(AAG GAA AU^NFG AGG AAA GA)-3′; U^NF = introduced 5′-amino-2′-fluoro-2′,5′-dideoxyuridine (AAGGAAAUGAGGAAAGA; sugars from the 5' end d7 [5NF]1 d9, backbone not given here)”, in series [1], the “Tm of the duplex DNA/DNA compared with that of T-1 (control) and T-2 (control), in words” value is on record as “equivalent”; the Tm worked out at 51.8 °C; the ΔTm is −1.1. In series [2], the “Tm of the duplex DNA/RNA compared with that of T-1 (control) and T-2 (control), in words” value is given as “equivalent”; the ΔTm was −0.2; the Tm was 41.9 °C.
For the substance “UNF-2: SEQ ID NO:2, 5′-(AAG GAA U^NFU^NFG AGG AAA GA)-3′; U^NF = introduced 5′-amino-2′-fluoro-2′,5′-dideoxyuridine (AAGGAAUUGAGGAAAGA; sugars from the 5' end d6 [5NF]2 d9, backbone not given here)”, the “Tm compared with that of UNF-1, in words” value in series [1] (duplex DNA/DNA (Table 3), two UNFs versus one UNF) was “higher”. Besides, in series [1], the “Tm of the duplex DNA/DNA compared with that of T-1 (control) and T-2 (control), in words” value is recorded as “equivalent”; the Tm worked out at 52.1 °C; the ΔTm is −1.4. In addition, the “Tm compared with that of UNF-1, in words” value in series [2] (duplex DNA/RNA (Table 5), two UNFs versus one UNF) was “higher”. In series [2], the “Tm of the duplex DNA/RNA compared with that of T-1 (control) and T-2 (control), in words” value is “equivalent”; the ΔTm is reported as −0.5; the midpoint of thermal melting (Tm) is 43.5 °C.
